What was measured:
[1] = design: method as in PMID 15897550; conditions: humans; read-out: maximal blood serum concentration (Cmax); cited from earlier work
[2] = tested on: V79 cells; test: Phospho-ATM (pATM) foci formation; type: cell-based, hamster; conditions: 6 to 24 h, V79, in words
Description: Figure 4 Cell cycle-related formation of DNA damage by hydroxamic acid- and benzamide-type HDACi. […] (B) For positive control, ionizing radiation (IR) was used. Shown are representative pictures of γH2AX, 53BP1, and pATM stained cells. […] Data shown are the mean ± SD from three independent experiments (n = 3); *, p ≤ 0.05; **, p ≤ 0.01 as compared to the untreated control, which was set to 1.0 (Student´s t-test).

[3] = tested on: VC8 hamster cells (BRCA1/2 defect); test: Viability of DSB repair defective VC8 versus wild-type V79 cells (Alamar blue); type: cell-based; conditions: summary grade, V79 versus VC8; further: key: −: no effect; 0: weak effect; +: moderate effect; ++: strong effect; +++: very strong effect as compared to untreated controls
Protocol: (§1) V79 hamster lung cells, which are recommended in the OECD toxicology guidelines for hazard identification (i.e., cytotoxicity and genotoxicity) of chemicals, were purchased from the German Collection of Microorganisms and Cell Cultures (DSMZ, Braunschweig, Germany). They were cultured in Dulbecco´s modified Eagle medium and Ham´s F12 medium (DMEM/F12) (PromoCell, Heidelberg, Germany) containing 10% fetal calf serum at 37 °C in a humidified atmosphere containing 5% CO2. VC8 hamster cells were defective in DNA double-strand break (DSB) repair by homologous recombination (HR) due to the lack of functional BRCA2 protein [69, 70]. VC8 cells were provided by B. Kaina (Institute of Toxicology, Mainz, Germany). Nucleotide excision repair defective XPA and CSB deficient cells were also provided by B. Kaina and were described before. They were grown in DMEM containing 10% fetal calf serum. Human neuroblastoma cells (IMR-32 and SH-SY5Y) were purchased from the German Collection of Microorganisms and Cell Cultures (DSMZ, Braunschweig, Germany) and were used as a model of malignant cells. They were grown in DMEM or RPMI (Roswell park memorial institute) medium, respectively, containing 10% fetal calf serum. If not stated otherwise, HDACi were added to the exponentially growing cells and analyses were performed 6 h to 72 h later.
(§2) Cell viability was determined using the Alamar blue assay, which reflected the mitochondrial activity. Viable cells were characterized by an effective mitochondrial metabolization of the non-fluorescent dye resazurin (Sigma, Steinheim, Germany) to fluorescent resorufin (excitation: 535 nm, emission: 590 nm). Relative viability in the untreated control was set to 100%. In addition, the Neutral red assay, which measures the integrity of lysosomal membranes, was used to monitor cytotoxicity. To this end, cells were incubated with the Neutral red solution (0.01%) in an atmosphere containing 5% CO2 for 90 min before they were fixed (1% formaldehyde/1% CaCl2). Afterwards, the Neutral red that was taken up by the cells was extracted (50% ethanol/1% of acetic acid, 15 min at room temperature (RT)) and absorbance (540 nm) was measured. If not stated otherwise, data are shown as the mean ± standard deviation (SD) of two to three independent experiments each performed in quadruplicate. Approximate IC50 (~IC50, see Supplementary Table S1) were calculated from the corresponding dose-response curves.

[4] = tested on: SH-SY5Y neuroblastoma cells; test: Alamar blue assay (cell viability), SH-SY5Y cells; type: cell-based, human
Protocol: as §1, §2

[5] = tested on: XPA-deficient cells; test: Viability of XPA-deficient versus proficient fibroblasts (Alamar blue); type: cell-based, human; conditions: 72 h, in words
Protocol: Figure 7 Sensitivity of nucleotide excision repair (NER) defective cells to hydroxamic acid- and benzamide-type HDACi. Viability of wild-type human fibroblasts and fibroblasts defective in nucleotide excision repair (NER) pathways (i.e., global genome nucleotide excision repair (GG-NER) or transcription-coupled nucleotide excision repair (TC-NER)) due to a defect in Xeroderma pigmentosum group A protein (XPA) or Cockayne syndrome protein B (CSB), respectively, was analyzed 72 h after the addition of HDACi by the Alamar blue assay, as described in Methods. The DNA intrastrand cross-linking agent cisplatin was used for control. Data shown are the mean ± SD from three independent experiments (n = 3) each performed in triplicate (N = 3); ns, not significant; *, p ≤ 0.05; **, p ≤ 0.01 as compared to the corresponding untreated controls (Student´s t-test).
V79 hamster lung cells, which are recommended in the OECD toxicology guidelines for hazard identification (i.e., cytotoxicity and genotoxicity) of chemicals, were purchased from the German Collection of Microorganisms and Cell Cultures (DSMZ, Braunschweig, Germany). They were cultured in Dulbecco´s modified Eagle medium and Ham´s F12 medium (DMEM/F12) (PromoCell, Heidelberg, Germany) containing 10% fetal calf serum at 37 °C in a humidified atmosphere containing 5% CO2. VC8 hamster cells were defective in DNA double-strand break (DSB) repair by homologous recombination (HR) due to the lack of functional BRCA2 protein [69, 70]. VC8 cells were provided by B. Kaina (Institute of Toxicology, Mainz, Germany). Nucleotide excision repair defective XPA and CSB deficient cells were also provided by B. Kaina and were described before. […]
Cell viability was determined using the Alamar blue assay, which reflected the mitochondrial activity. […] Afterwards, the Neutral red that was taken up by the cells was extracted (50% ethanol/1% of acetic acid, 15 min at room temperature (RT)) and absorbance (540 nm) was measured. […] Approximate IC50 (~IC50, see Supplementary Table S1) were calculated from the corresponding dose-response curves.

[6] = tested on: V79 cells; test: Micronucleus assay; conditions: for micronucleus assay outcome at 50 μM (printed in Figure 2A) / Micronucl. Assay: V79; for Micronucl. Assay: summary grade
Protocol: We analyzed the frequency of micronuclei in binucleated cells, as described [86]. Briefly, logarithmically growing cells were treated with cytochalasin B (3 µg/m) for 24 h. After fixation with formaldehyde (3.7% in PBS, 20 min, RT) and washing with PBS, cells were permeabilized using precooled methanol (20 min, −20 °C.) After washing with PBS and rinsing the cell layer with PBS containing Triton X100 (PBST; 0.3% Triton X100 in PBS), DNA was stained by DAPI (4´,6-diamino-2-phenylindole) and the number of micronuclei was evaluated by fluorescence microscopy. Data shown are the mean ± SEM of three independent experiments with ≥1000 binucleated cells evaluated per experimental condition.

[7] = tested on: V79 cells; test: Nuclear 53BP1 foci formation; type: cell-based, hamster; conditions: 6 to 24 h, V79, in words
Protocol: The frequency of nuclear foci formed by S139 phosphorylated H2AX (γH2AX foci), which is a surrogate marker of DNA damage, especially DNA double-strand breaks (DSBs), was assayed by immunocytochemistry-based analysis. […] The appearance of nuclear 53BP1 foci, which is another marker of DSBs, was also determined by immunocytochemistry. Cells were fixed with 4% formaldehyde in phosphate-buffered saline (PBS) (MERCK, Darmstadt, Germany) (15 min, RT) followed by incubation with ice-cold methanol (≥20 min, −20 °C). After blocking (1 h, RT, blocking solution: 5% BSA (MERCK, Darmstadt, Germany) in PBS/0.3% Triton X-100 (Sigma, Steinheim, Germany)), incubation with γH2AX antibody and 53BP1 antibody was performed (1:500, overnight, 4 °C). After incubation with the secondary fluorescence-labeled antibody (1:500, 1 h, RT, in the dark), cells were mounted in Vectashield (Vector Laboratories (Burlingame, CA, USA)) containing DAPI. The number of nuclear γH2AX and 53BP1 foci was scored (Olympus BX43 fluorescence microscope). Only nuclei with distinct foci were evaluated and γH2AX pan-stained nuclei were excluded from the foci analyses. Data are shown as the mean ± SEM of three independent experiments with ≥50 nuclei analyzed per experimental condition.

[8] = tested on: V79 hamster lung cells; test: Neutral red assay (cytotoxicity), V79 cells; type: cell-based
Protocol: as §1, §2

[9] = tested on: IMR-32 neuroblastoma cells; test: Neutral red assay (cytotoxicity), IMR-32 cells; type: cell-based, human
Protocol: as §1, §2

[10] = tested on: SH-SY5Y neuroblastoma cells; test: Neutral red assay (cytotoxicity), SH-SY5Y cells; type: cell-based, human
Protocol: as §1, §2

[11] = tested on: IMR-32 neuroblastoma cells; test: Alamar blue assay (cell viability), IMR-32 cells; type: cell-based, human
Protocol: as §1, §2

[12] = tested on: V79 hamster lung cells; test: Alamar blue assay (cell viability), V79 cells; type: cell-based; conditions: for less cytotoxic to non-malignant V79 cells than to malignant neuroblastoma cells (IC50 based): selection criterion, IC50 of Table S1
Protocol: as §1, §2

[13] = Homo sapiens, SH-SY5Y, 24 h, approximate IC50, read-out: IC50 - 24 h Treatment, SH-SY5Y
[14] = 24 h, approximate IC50, read-out: IC50 - 24 h Treatment, V79
[15] = 72 h, approximate IC50, read-out: IC50 - 72 h Treatment, V79
[16] = 24 h, approximate IC50, read-out: IC50 - 24 h Treatment, IMR-32
[17] = 72 h, approximate IC50, read-out: IC50 - 72 h Treatment, IMR-32
[18] = 24 h, approximate IC50, read-out: IC50 - 24 h Treatment, SH-SY5Y
[19] = 72 h, approximate IC50, read-out: IC50 - 72 h Treatment, SH-SY5Y
[20] = V79, 24 h after drug treatment (values match Alamar blue data of Table S1), read-out: Viability (IC50) 24 h
[21] = V79, 72 h after drug treatment (values match Alamar blue data of Table S1), read-out: Viability (IC50) 72 h
[22] = Homo sapiens, IMR-32, 24 h, approximate IC50, read-out: IC50 - 24 h Treatment, IMR-32
[23] = Homo sapiens, IMR-32, 72 h, approximate IC50, read-out: IC50 - 72 h Treatment, IMR-32
[24] = Homo sapiens, SH-SY5Y, 72 h, approximate IC50, read-out: IC50 - 72 h Treatment, SH-SY5Y

SMILES | DSB Repair def. Cells [3] | IC50 [4, 13] [µM] | sensitivity of XPA-deficient versus XPA proficient cells [5] | micronucleus assay outcome at 50 μM (printed in Figure 2A) [6] | Micronucl. Assay [6] | IC50 [8, 14] [µM] | IC50 [8, 15] [µM] | IC50 [9, 16] [nM] | IC50 [9, 17] [nM] | IC50 [10, 18] [µM] | IC50 [10, 19] [µM] | IC50 [4, 18] [µM] | IC50 [4, 19] [µM] | IC50 [11, 16] [nM] | IC50 [11, 17] [nM] | IC50 [12, 20] [µM] | IC50 [12, 21] [µM] | less cytotoxic to non-malignant V79 cells than to malignant neuroblastoma cells (IC50 based) [12] [fold] | further results
O=C(CCCCCCC(=O)Nc1ccccc1)NO [Vorinostat, vorinostat, reference compound] | ++ | 33 | XPA-deficient cells are even more resistant | Cytotoxic | + | – | – | – | – | – | – | – | – | – | – | – | – | – | Cmax [1]: ~1000 nM; formation of phospho-ATM (pATM) foci [2]: did not cause the formation of phospho-ATM (pATM) foci; formation of nuclear 53BP1 foci [7]: failed to cause the formation of nuclear 53BP1 foci
Nc1ccc(F)cc1NC(=O)c1ccc(CONC(=O)C=Cc2cccnc2)cc1 [MPK77] | + | – | – | – | + | > 50 | 35 | 9000 | 3000 | > 50 | 23 | 33 | 17 | 3000 | 2000 | > 50 | 50 | ≥ 10 | frequency of micronuclei ([6]; 24 h, V79, in words): slight but significant increase in the frequency of micronuclei
Nc1ccccc1NC(=O)c1ccc(CNC(=O)OCc2cccnc2)cc1 [Entinostat, entinostat, reference compound] | + | > 50 | – | – | – | – | – | – | – | – | – | – | – | – | – | > 50 | 7 | – | IC50 ([8]; V79, 24 h, approximate IC50, read-out: IC50 - 24 h Treatment, V79): > 50 µM; IC50 ([8]; V79, 72 h, approximate IC50, read-out: IC50 - 72 h Treatment, V79): 2 µM; IC50 [9, 22]: > 50000 nM; IC50 [9, 23]: 3000 nM; IC50 [10, 13]: > 50 µM; IC50 [10, 24]: 9 µM; IC50 [4, 24]: 8 µM; IC50 [11, 22]: 50000 nM; IC50 [11, 23]: 2000 nM
CN(C)c1ccc(C(=O)N(CC(=O)NCc2ccccc2)Cc2ccc(C(=O)NO)cc2)cc1 [DDK137] | + | – | XPA-deficient cells are even more resistant | Cytotoxic | + | 36 | 17 | 10000 | 300 | > 50 | 1 | 50 | 0.9 | 600 | 200 | 33 | 11 | ≥ 10 | –

Source: publication PMC7370100, “In Vitro Assessment of the Genotoxic Hazard of Novel Hydroxamic Acid- and Benzamide-Type Histone Deacetylase Inhibitors (HDACi)” (International Journal of Molecular Sciences, 2020)
